Results as given in PubChem BioAssay (NCI).
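In this assay, cells in 96-well plates receive the compound at five concentrations for 48 hours. Endpoints are linearly interpolated between the surrounding concentrations. Abbreviation: GI50, concentration required for 50% inhibition of growth. TGI is the concentration that stops growth completely.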

What was measured:
Test in all cases: NCI-60 cell line screen, 48 h; in the data active = GI50 below about 0.43 µM; inactive = the rest
NCI-H460 lung = system: NCI-H460 lung
BT-549 breast = system: BT-549 breast
KM12 colon = system: KM12 colon
HL-60(TB) leukemia = system: HL-60(TB) leukemia
TK-10 renal = system: TK-10 renal
SNB-19 CNS = system: SNB-19 CNS
HT29 colon = system: HT29 colon
RPMI-8226 leukemia = system: RPMI-8226 leukemia
PC-3 prostate = system: PC-3 prostate
NCI-H226 lung = system: NCI-H226 lung
SK-OV-3 ovarian = system: SK-OV-3 ovarian
IGROV1 ovarian = system: IGROV1 ovarian
CAKI-1 renal = system: CAKI-1 renal
NCI-H522 lung = system: NCI-H522 lung
NCI/ADR-RES ovarian = system: NCI/ADR-RES ovarian
NCI-H23 lung = system: NCI-H23 lung
HS 578T breast = system: HS 578T breast
M14 melanoma = system: M14 melanoma
HCT-15 colon = system: HCT-15 colon
MOLT-4 leukemia = system: MOLT-4 leukemia
A549 NSCLC = system: A549 NSCLC
T-47D breast = system: T-47D breast
RXF 393 renal = system: RXF 393 renal
K-562 leukemia = system: K-562 leukemia
HOP-92 NSCLC = system: HOP-92 NSCLC
DU-145 prostate = system: DU-145 prostate
HOP-62 NSCLC = system: HOP-62 NSCLC
HCC-2998 colon = system: HCC-2998 colon
SW-620 colon = system: SW-620 colon
UACC-257 melanoma = system: UACC-257 melanoma
SNB-75 CNS = system: SNB-75 CNS
MALME-3M melanoma = system: MALME-3M melanoma
U251 CNS = system: U251 CNS
786-0 renal = system: 786-0 renal
SR leukemia = system: SR leukemia
MDA-MB-435 = system: MDA-MB-435
OVCAR-4 ovarian = system: OVCAR-4 ovarian
OVCAR-3 ovarian = system: OVCAR-3 ovarian
OVCAR-8 ovarian = system: OVCAR-8 ovarian
MCF7 breast = system: MCF7 breast
ACHN renal = system: ACHN renal
CCRF-CEM leukemia = system: CCRF-CEM leukemia
COLO 205 colon = system: COLO 205 colon
HCT-116 colon = system: HCT-116 colon
UO-31 renal = system: UO-31 renal
SK-MEL-5 melanoma = system: SK-MEL-5 melanoma
UACC-62 melanoma = system: UACC-62 melanoma
LOX IMVI melanoma = system: LOX IMVI melanoma
SF-268 CNS = system: SF-268 CNS
SF-539 CNS = system: SF-539 CNS
OVCAR-5 ovarian = system: OVCAR-5 ovarian
MDA-MB-231 breast = system: MDA-MB-231 breast
SK-MEL-28 melanoma = system: SK-MEL-28 melanoma
SN12C renal = system: SN12C renal
SK-MEL-2 melanoma = system: SK-MEL-2 melanoma
A498 renal = system: A498 renal

COc1ccc(-c2nc(-c3nc4ccc(C)cc4[nH]3)cc3c2[nH]c2ccccc23)cc1
14 µM: TGI (KM12 colon)
17.1 µM: TGI (LOX IMVI melanoma)
18.7 µM: TGI (CCRF-CEM leukemia)
12.6 µM: TGI (SK-MEL-5 melanoma)
72.5 µM: TGI (MALME-3M melanoma)
10 µM: TGI (MOLT-4 leukemia)
27.8 µM: TGI (SR leukemia)
8.21 µM: TGI (COLO 205 colon)
37.7 µM: TGI (HL-60(TB) leukemia)
12 µM: TGI (OVCAR-3 ovarian)
9.22 µM: TGI (SK-MEL-2 melanoma)
19.2 µM: TGI (T-47D breast)
8.11 µM: TGI (HOP-92 NSCLC)
> 100 µM: TGI (NCI-H460 lung) | TGI (BT-549 breast) | TGI (TK-10 renal) | TGI (SNB-19 CNS) | TGI (HT29 colon) | TGI (PC-3 prostate) | TGI (SK-OV-3 ovarian) | TGI (IGROV1 ovarian) | TGI (CAKI-1 renal) | TGI (NCI/ADR-RES ovarian) | TGI (NCI-H23 lung) | TGI (HS 578T breast) | TGI (HCT-15 colon) | TGI (A549 NSCLC) | TGI (RXF 393 renal) | TGI (K-562 leukemia) | TGI (DU-145 prostate) | TGI (HOP-62 NSCLC) | TGI (HCC-2998 colon) | TGI (SW-620 colon) | TGI (UACC-257 melanoma) | TGI (SNB-75 CNS) | TGI (U251 CNS) | TGI (786-0 renal) | TGI (MDA-MB-435) | TGI (OVCAR-4 ovarian) | TGI (OVCAR-8 ovarian) | TGI (ACHN renal) | TGI (UO-31 renal) | TGI (SF-268 CNS) | TGI (SF-539 CNS) | TGI (OVCAR-5 ovarian) | TGI (MDA-MB-231 breast) | TGI (SK-MEL-28 melanoma) | TGI (SN12C renal) | TGI (A498 renal)
56.3 µM: TGI (MCF7 breast)
inactive: GI50 (NCI-H460 lung) 2.99 µM | GI50 (BT-549 breast) 6.88 µM | GI50 (KM12 colon) 3.26 µM | GI50 (HL-60(TB) leukemia) 4.11 µM | GI50 (TK-10 renal) 5.45 µM | GI50 (SNB-19 CNS) 7.28 µM | GI50 (HT29 colon) 5.29 µM | GI50 (RPMI-8226 leukemia) 1.85 µM | GI50 (PC-3 prostate) 2.74 µM | GI50 (NCI-H226 lung) 4.81 µM | GI50 (SK-OV-3 ovarian) 61 µM | GI50 (IGROV1 ovarian) 3.58 µM | GI50 (CAKI-1 renal) 3.28 µM | GI50 (NCI-H522 lung) 4.39 µM | GI50 (NCI/ADR-RES ovarian) 3.72 µM | GI50 (NCI-H23 lung) 5.36 µM | GI50 (HS 578T breast) 4.94 µM | GI50 (M14 melanoma) 3.09 µM | GI50 (HCT-15 colon) 3.2 µM | GI50 (MOLT-4 leukemia) 2.31 µM | GI50 (A549 NSCLC) 3.43 µM | GI50 (T-47D breast) 3.67 µM | GI50 (RXF 393 renal) 3.82 µM | GI50 (K-562 leukemia) 3.09 µM | GI50 (HOP-92 NSCLC) 2.17 µM | GI50 (DU-145 prostate) 5.02 µM | GI50 (HOP-62 NSCLC) 5.78 µM | GI50 (HCC-2998 colon) 7.61 µM | GI50 (SW-620 colon) 6.23 µM | GI50 (UACC-257 melanoma) 3.94 µM | GI50 (SNB-75 CNS) 3.43 µM | GI50 (MALME-3M melanoma) 5.1 µM | GI50 (U251 CNS) 3.42 µM | GI50 (786-0 renal) 19.3 µM | GI50 (SR leukemia) 2.68 µM | GI50 (MDA-MB-435) 3.94 µM | GI50 (OVCAR-4 ovarian) 4.09 µM | GI50 (OVCAR-3 ovarian) 3.59 µM | GI50 (OVCAR-8 ovarian) 3.02 µM | GI50 (MCF7 breast) 3.06 µM | GI50 (ACHN renal) 3.05 µM | GI50 (CCRF-CEM leukemia) 2.94 µM | GI50 (COLO 205 colon) 2.83 µM | GI50 (HCT-116 colon) 3.55 µM | GI50 (UO-31 renal) 2.99 µM | GI50 (SK-MEL-5 melanoma) 3.12 µM | GI50 (UACC-62 melanoma) 3.34 µM | GI50 (LOX IMVI melanoma) 3.34 µM | GI50 (SF-268 CNS) 6.8 µM | GI50 (SF-539 CNS) 3.92 µM | GI50 (OVCAR-5 ovarian) 6.83 µM | GI50 (MDA-MB-231 breast) 6.88 µM | GI50 (SK-MEL-28 melanoma) 5 µM | GI50 (SN12C renal) 3.96 µM | GI50 (SK-MEL-2 melanoma) 3.11 µM | GI50 (A498 renal) 2.36 µM
5.31 µM: TGI (RPMI-8226 leukemia)
23.1 µM: TGI (UACC-62 melanoma)
11.7 µM: TGI (M14 melanoma)
40.6 µM: TGI (HCT-116 colon)
42.1 µM: TGI (NCI-H522 lung)
58.7 µM: TGI (NCI-H226 lung)
